Measured values published in patent US20160186068A1, “METHODS AND SYSTEMS FOR PROCESSING CELLULOSIC BIOMASS” (SHELL OIL COMPANY, priority 2014, published 2016).
Like-named read-outs stand apart in the source and are kept apart here.

How the values were obtained:
[1] = MIBC re-extraction (step #2) of aqueous lower layer from initial MIBC extraction (Example 4); type: physicochemical; settings: for Extr #2 % extract / Extr #2 K UL/LL: MIBC re-extraction (step #2); for Extr #2 K UL/LL / Extr #2 LL-wt %: one part MIBC by weight, 25° C.; for Extr #2 LL-wt %: lower layer after MIBC re-extraction (step #2); for extraction from aqueous lower layer by MIBC (in words): MIBC re-extraction, GC results
[2] = as above; type: physicochemical; settings: for Extr #1 K UL/LL: initial (step #1) MIBC extraction; for Extr #1 LL-wt %: lower aqueous layer after initial (step #1) MIBC extraction
Experimental: One part of the upper organic-rich upper layer from Example 3 was removed prior to distillation, extracted with one part by weight of MIBC solvent, by shaking for 3 minutes in a vial via mechanical shaker, followed by allowing to phase separate overnight at 25° C.
Extraction efficiency as measured by the partition coefficient K increased with increasing carbon number for the light alcohol. Glycols, including ethylene glycol (EG) and propylene glycol (PG) were not extracted.

[3] = Comparison of extraction solvents on simulated reaction product mixture (Examples 5A-5D); settings: for Kow: one part by weight, 2 weight percent each component in water, 25° C.
Experimental: The reaction product mixture was extracted with one part of by weight solvent, with mixing for a minimum of three minutes, followed by phase separation overnight at 25° C.

[4] = MIBC extraction of reactor product: partition between upper MIBC-rich organic layer and lower aqueous layer (Example 3)
Experimental: (§1) The injector temperature was set at 250° C., and the detector temperature was set at 300° C.
Partition coefficients for the concentration by weigh in the upper MIBC-rich organic layer, vs. the lower aqueous layer, are reported in Table 2.

[5] = Toluene extraction of reactor product: partitioning between upper organic and lower aqueous phases (Example 2); settings: for Kow UL/LL, partition coefficients for toluene extraction: toluene extractant, stirred at 150° C. for 2 hours, upper toluene-rich phase / lower aqueous-rich phase
Experimental: as §1
Reaction cycles entailed 1 hour at 160° C., followed by 1 hour at 190° C., followed by 3 hours at 240° C. Six cycles of wood addition were effected, which simulated the first hydrothermal reaction. This was followed by heating overnight at 270° C. under 52 bar of H2, which simulated the second hydrothermal reaction to further hydrotreat and complete conversion of various compounds in the first reaction product, which the examples may refer to as intermediates.
Stirring was then stopped, and the reactor allowed to cool. […] Catalyst was left on the reactor bottom.

[6] = Solubility of MPP in deionized water (Example 5E solution); type: physicochemical; settings: 1 wt % solution, room temperature, judged by turbidity
[7] = Extraction of phenols from 1% aqueous solution with toluene or heptane (Examples 5E-5H)
[8] = Ex 5A, toluene extraction solvent
[9] = Ex 5C, 1:1 MPP/MIBC extraction solvent
[10] = Ex 5D, meta-cresol extraction solvent
[11] = Example 5C, MPP/MIBC extraction solvent
[12] = concentration by weight in upper MIBC-rich organic layer vs. lower aqueous layer
[13] = Example 5F, 1% MPP in water extracted with heptane
[14] = Example 5B, MPP as extraction solvent
[15] = Example 5G, 1% solution of m-cresol extracted with toluene
[16] = Example 5D, m-cresol as extraction solvent

For 1-propanol [PrOH], the “Extr #2 % extract” value [1] was 71%, the “Extr #2 K UL/LL” value [1] was 1.429 and the “Extr #2 LL-wt %” value [1] was 0.10 wt %.

With OCCO [EG, ethylene glycol] the “Extr #1 K UL/LL” value [2] was 0.37, the “Extr #1 LL-wt %” value [2] was 0.20 wt % and the “Extr #2 % extract” value [1] was −43%. The “Extr #2 K UL/LL” value [1] was 0.045, the “extraction from aqueous lower layer by MIBC (in words)” value [1] was “not extracted” and the “Extr #2 LL-wt %” value [1] was 0.29 wt %. It also gave a Kow [3, 8] of 0.000, a Kow ([3]; Ex 5B, MPP extraction solvent) of 0.037 and a Kow [3, 9] of 0.079. It also gave a Kow [3, 10] of 0.036.

With CCO [EtOH, ethanol] the “Extr #2 % extract” value [1] was 39% and the “Extr #2 LL-wt %” value [1] was 0.16 wt %.

With CC(C)CC(C)O (centres unmarked) [MIBC, methylisobutylcarbinol] the “MIBC extraction partition coefficient” value [4] was 48.12 and the “co-solvent lost to aqueous” value [3, 11] was 1%.

In the case of CCCc1ccc(O)c(OC)c1 [MPP, 2-methoxy-4-propylphenol], the “Kow UL/LL, partition coefficients for toluene extraction” value [5] was 33.59, the “MIBC extraction partition coefficient” value [4, 12] was over 50 and the “solubility in deionized water” value [6] was “only partial solubility”. For the same compound, the “partition coefficient, weight percent in organic layer extract vs. remaining lower layer aqueous fraction” value ([7]; Example 5E, 1 wt % MPP in deionized water extracted with one part toluene) was 161.7, the “recovered by extraction from the aqueous phase” value ([7]; Example 5E, MPP as a 1% solution, toluene as solvent) was “More than 99%” and the apparent partition coefficient [7, 13] was 76. The “removed down to (residual in water)” value [7, 13] was 0.08 wt %, the “amount lost to the aqueous phase” value [3, 14] was 0.15 wt % and the “apparent partition coefficient between organic and aqueous layers” value [3, 14] was 612. The “extractant lost to the aqueous phase” value [3, 11] was 0.12 wt %, the “measured in the final organic extract” value [3, 11] was 55 wt % and the oil/water partition coefficient [3, 11] was 462.

For CO [MeOH, Methanol], the “MIBC extraction partition coefficient” value [4, 12] was 0.30, the “Extr #1 LL-wt %” value [2] was 0.18 wt % and the “Extr #2 % extract” value [1] was 16%. The “Extr #2 LL-wt %” value [1] was 0.15 wt %.

With CC(O)CO (centres unmarked) [PG, 1,2-propylene glycol] the “MIBC extraction partition coefficient” value [4] was 0.33, the “Extr #1 K UL/LL” value [2] was 0.33 and the “Extr #1 LL-wt %” value [2] was 0.38 wt %. The “Extr #2 % extract” value [1] was −30%, the “Extr #2 K UL/LL” value [1] was 0.294 and the “extraction from aqueous lower layer by MIBC (in words)” value [1] was “not extracted”. For the same compound, the “Extr #2 LL-wt %” value [1] was 0.49 wt %, the Kow [3, 8] was 0.013 and the Kow ([3]; Ex 5B, MPP extraction solvent) was 0.084. The Kow [3, 9] was 0.042 and the Kow [3, 10] was 0.197.

In the case of Cc1cccc(O)c1 [cresol, meta-cresol], the “apparent partition coefficient between organic and aqueous phases” value [7, 15] was 20.8, the “residual left in the aqueous layer” value [7, 15] was 0.05 wt % and the “remained with the aqueous layer” value ([7]; Example 5H, 1% m-cresol solution extracted with heptane) was 0.56 wt %. For the same compound, the “apparent partition coefficient between oil and water” value [3, 16] was 39 and the “lost to the aqueous layer” value [3, 16] was 2.7 wt %.

With CCCCCCC [heptane] the “extraction solvent lost to the aqueous phase” value ([7]; Example 5F, heptane extraction) was 0.07 wt % and the “extraction solvent lost to the aqueous layer” value ([7]; Example 5H, heptane extraction) was 0.015%.

For Cc1ccccc1 [toluene], the “extraction solvent lost to the aqueous phase” value ([7]; Example 5G, toluene extraction) was 0.04 wt % and the “loss of toluene extraction solvent” value ([7]; toluene extraction, lost to the lower layer) was “less than 1%”.

With Cc1cccc(C)c1O [xylenol, 2,6-xylenol] the “collected in the upper layer (toluene phase) distillation, relative to the bottom phase distillation” value ([5]; after toluene extraction, separate distillation of phases) was 99.5%, the “Kow UL/LL, partition coefficients for toluene extraction” value [5] was 51.79 and the “MIBC extraction partition coefficient” value [4, 12] was 87.26.
